Results reported in paper PMC3045100, “Cell-Penetrating Penta-Peptides (CPP5s): Measurement of Cell Entry and Protein-Transduction Activity” (Pharmaceuticals, 2010).

Columns and labels:
[1] = system: Primary cultured mouse embryonic fibroblast (MEF) cells; assay: Cytotoxicity (apoptosis, Hoechst nuclear staining) of CPP5 and TAT; type: cell-based
Method: List of cell-penetrating penta-peptides (CPP5s). […] Peptide sequences are color-coded to show the constant amphipathic amino acid arrangement in each CPP5. […] Fam was labeled on the N-terminus of all peptides examined. Cells were analyzed by FACS and/or microscopy. The activity of each peptide is shown as a percentage of the activity of KLPVM. Each value represents the mean of triplicate samples. Cell entry of some peptides was confirmed by microscopy only, and these peptides are indicated with a '+' without a percentage value. For cytoprotective activity (right column), the information is based on previous studies and the activity was determined by the protection of cells from Bax overexpression and other apoptotic stimuli such as etoposide treatment. b to e. Cell entry of Fam-labeled […], and poly-arginine (R8). […] Comparison of the cytotoxicity of CPP5 and TAT. Primary cultured mouse embryonic fibroblast (MEF) cells were treated with various concentrations of peptides for 24 h as indicated. Then, apoptosis was analyzed as described in Experimental Procedures. Each bar represents the mean of triplicate samples and standard error.

Jurkat cells = assay: Protection from staurosporine-induced apoptosis (Hoechst nuclear staining); type: cell-based; conditions: 200 μM peptide 3 h pre-incubation, STS 100 nM, 3 or 6 h, Hoechst dye nuclear staining, triplicate samples, P < 0.01
Method: Figure 3 Protection of cells from apoptosis by VPTLK. a-d. Proteoglycan is not required for VPTLK cell entry. Microscopic analysis of cell entry of Fam-VPTLK in Chinese Hamster Ovary (CHO) A745 cells lacking proteoglycans in the plasma membrane (a) and CHO K1 cells that express proteoglycans (b). CHO A745 and K1 cells were incubated with Fam-VPTLK (200 μM) for 3 h at 37 °C. […] Apoptosis was determined by using Hoechst dye nuclear staining. Each bar represents the mean of triplicate samples and standard error, and statistical significance was determined by an unpaired student t test; “ns”: not significant, *P < 0.05, and **P < 0.01. e. […] Jurkat cells were pre-incubated with VPTLK 200 μM for 3 h prior to STS treatment (100 nM, 3 or 6 h). Apoptosis was determined by Hoechst dye nuclear staining. Each bar represents the mean of triplicate samples and standard error, and statistical significance was determined by an unpaired student t test: **P < 0.01. f. […] Apoptosis was determined by Hoechst dye nuclear staining. […]
To induce Bax-mediated apoptosis in HeLa cells, cells were transfected with pEGFP-Bax (1 µg) and apoptosis was determined 24 h after the transfection. […] To detect apoptosis, cells were stained with Hoechst 33258 dye, and the numbers of cells with apoptotic nuclei were counted using fluorescence microscopy. Three-hundred cells were analyzed in triplicate samples. […]

VPTLK
Cytotoxic effect at 1.6 mM in the cell culture medium [1]: did not show significant cytotoxic effects | Protection from STS-induced apoptosis, Jurkat (Jurkat cells): protected Jurkat cells from STS-induced apoptosis
